Assay results: ChEMBL document CHEMBL3784975 (Bioorg Med Chem Lett, 2016)

Tests used:
HeLa = test: Cytotoxicity against human HeLa cells after 24 hrs by [3H]-thymidine incorporation assay; assay type: functional, cell-based
[1] = Cytotoxicity against human CLL cells after 24 hrs by annexin-V/PI staining based flow cytometry; assay type: functional, cell-based
[2] = Cytotoxicity against human IGROV cells after 48 hrs by crystal violet staining based assay; assay type: functional, cell-based
[3] = Cytotoxicity against human SJSA1 cells after 48 hrs by crystal violet staining based assay; assay type: functional, cell-based; settings: SJSA-1, 48 h
[4] = Cytotoxicity against human A3 cells after 48 hrs by crystal violet staining based assay; assay type: functional, cell-based; settings: A3, 48 h
A-431 = test: Cytotoxicity against human A431 cells after 48 hrs by crystal violet staining based assay; assay type: functional, cell-based; settings: A-431, 48 h
[5] = Cytotoxicity against human […] cells after 48 hrs by crystal violet staining based assay; assay type: functional, cell-based
[6] = Half life of compound in water at 25 deg C; assay type: physicochemical
[7] = Half life of compound at pH 5; assay type: physicochemical
[8] = Cytotoxicity against human CLL cells after 24 hrs by annexin-V/PI staining based flow cytometry in presence of human plasma protein; assay type: functional, cell-based
[9] = Cytotoxicity against human CLL cells after 24 hrs by annexin-V/PI staining based flow cytometry in presence of fetal bovine serum; assay type: functional, cell-based
[10] = Cytotoxicity against human B cells assessed as cell viability after 24 hrs by annexin V/propidium iodide staining based flow cytometric analysis
[11] = Cytotoxicity against human T cells assessed as cell viability after 24 hrs by annexin V/propidium iodide staining based flow cytometric analysis
[12] = Plasma protein binding in human by liquid chromatography-mass spectrometric analysis; assay type: ADME, cell-free
Plasma = test: Metabolic stability in human plasma assessed as drug recovery; assay type: ADME, cell-free

SMILES | IC50 (HeLa) | IC50 [1] | further results
CN1C(=O)N[C@H]2[C@@H]3NC(=O)c4cc(-c5ccccc5)c(Br)n4[C@@H]3C[C@]21O | > 20000 nM | > 10000 nM | 
CN1C(=O)N[C@H]2[C@@H]3NC(=O)c4cc(Br)c(Br)n4[C@@H]3C[C@]21O | 7850 nM | > 30000 nM | IC50 [2]: > 1000 nM; IC50 [3]: > 1000 nM; IC50 [4]: > 1000 nM; IC50 (A-431): > 1000 nM; IC50 [5]: > 1000 nM
CN1C(=O)N[C@H]2[C@@H]3NC(=O)c4cc(I)c(Br)n4[C@@H]3C[C@]21O | > 20000 nM |  | 
CN1C(=O)N[C@H]2[C@@H]3NC(=O)c4c(Br)c(Br)c(Br)n4[C@@H]3C[C@]21O | > 20000 nM | > 10000 nM | 
CN1C(=O)N[C@H]2[C@@H]3NC(=O)c4cc(-c5ccccc5)c(-c5ccccc5)n4[C@@H]3C[C@]21O | > 20000 nM | > 10000 nM | 
CN1C(=O)N[C@H]2[C@@H]3NC(=O)c4cc(C#Cc5ccccc5)c(Br)n4[C@@H]3C[C@]21O | > 20000 nM | > 10000 nM | 
Cc1ccc2n1[C@@H]1C[C@]3(O)[C@@H](NC(=O)N3C)[C@@H]1NC2=O | > 20000 nM | 9770 nM | IC50 [2]: 310 nM; IC50 [3]: > 1000 nM; IC50 [4]: > 1000 nM; IC50 (A-431): > 1000 nM; IC50 [5]: 280 nM
CC(=O)c1cc2n(c1Br)[C@@H]1C[C@]3(O)[C@@H](NC(=O)N3C)[C@@H]1NC2=O | > 20000 nM | > 10000 nM | 
CC(=O)CCO[C@@]12C[C@@H]3[C@@H](NC(=O)c4ccc(Br)n43)[C@@H]1NC(=O)N2C | 1720 nM | 5740 nM | half-life [6]: 16 h
C#CCCCO[C@@]12C[C@@H]3[C@@H](NC(=O)c4ccc(Br)n43)[C@@H]1NC(=O)N2C | > 20000 nM | > 10000 nM | 
Cc1cc2n(c1Br)[C@@H]1C[C@]3(O)[C@@H](NC(=O)N3C)[C@@H]1NC2=O | 4530 nM | 7120 nM | 
CN1C(=O)N[C@H]2[C@@H]3NC(=O)c4ccc(Br)n4[C@@H]3C[C@]21N | 17000 nM | > 30000 nM | t1/2 [7]: 170 h
CN1C(=O)c2ccc(Br)n2[C@@H]2C[C@]3(O)[C@@H](NC(=O)N3C)[C@@H]21 (racemic) | > 20000 nM |  | 
Cc1c(C)c2n(c1Br)[C@@H]1C[C@]3(O)[C@@H](NC(=O)N3C)[C@@H]1NC2=O | > 20000 nM |  | 
Cc1ccn2c1C(=O)N[C@@H]1[C@H]2C[C@]2(O)[C@H]1NC(=O)N2C | > 20000 nM |  | 
Cc1c(Br)c(Br)n2c1C(=O)N[C@@H]1[C@H]2C[C@]2(O)[C@H]1NC(=O)N2C | > 20000 nM |  | 
CN1C(=O)N[C@H]2[C@@H]3NC(=O)c4ccc(Br)n4[C@@H]3C[C@]21OCCCc1cn(CCCC(=O)NCc2ccccc2)nn1 | > 20000 nM | > 10000 nM | 
CN1C(=O)N[C@H]2[C@@H]3NC(=O)c4ccc(Br)n4[C@@H]3C[C@]21O [AGELASTATIN A] | 84 nM | 710 nM | IC50 [2]: 170 nM; IC50 [3]: 440 nM; IC50 [4]: 380 nM; IC50 (A-431): 460 nM; IC50 [5]: 320 nM; IC50 [8]: 710 nM; IC50 [9]: 930 nM; Activity [10]: Toxic; Activity [11]: Toxic
CN1C(=O)N[C@H]2[C@@H]3NC(=O)c4cc(Cl)c(Br)n4[C@@H]3C[C@]21O |  | 2820 nM | IC50 [2]: 260 nM; IC50 [3]: 560 nM; IC50 [4]: 470 nM; IC50 (A-431): 340 nM; IC50 [5]: 540 nM; IC50 [8]: 2820 nM; IC50 [9]: 2650 nM; PPB [12]: 46.5%; Drug recovery (Plasma): 102.1%; Activity [10]: Toxic; Activity [11]: Toxic
